pEC50: −log10 of the molar value.

The values that follow come from ChEMBL document CHEMBL1130621, “Synthesis of a non-nucleoside reverse transcriptase inhibitor in the alkenyldiarylmethane (ADAM) series with optimized potency and therapeutic index” (Bioorg Med Chem Lett, 1998).

Assay [1] relates to CEM-SS. In words: Compound was tested for the prevention of cytopathic effect of HIV-1 RF in CEM-SS cells. The format is functional, cell-based. As to conditions: Homo sapiens. For orientation: Damage to the host cells serves as the signal in cytopathic effect assays.
The subject of assay [2] is CEM-SS. Nature of the assay: Compound was tested for cytotoxicity in uninfected CEM-SS cells. Format: functional. As to conditions: Homo sapiens.
For assay [3], the system named is MT4. In words: Compound was tested for the inhibition of cytopathic effect of HIV-1 6S in MT-4 cells. Format: functional, Homo sapiens.
Assay [4] relates to MT4. In words: Compound was tested for the inhibition of cytopathic effect of HIV-1 N119 in MT-4 cells. Format: functional, Homo sapiens.

By pEC50 is commonly meant the negative decadic logarithm of the EC50, by convention in mol/L. A higher pEC50 goes with a low EC50. A word on the CC50: it is the concentration at which the toxic effect on the cells reaches its halfway point. A high value points to better tolerance by the cells. The molecule `COC(=O)CCCC=C(c1cc(Cl)c(OC)c(C(=O)OC)c1)c1cc(Cl)c(OC)c(C(=O)OC)c1` showed a pEC50 with CEM-SS [1] of 7.89. Further, it took 31.6 µM to reach half-maximal cytotoxicity with CEM-SS [2] (CC50).
`CCCCCC=C(c1cc(Br)c(OC)c(C(=O)OC)c1)c1cc(Br)c(OC)c(C(=O)OC)c1`: the Activity came out at 0.56 µM in the assay with MT4 [3] and 151 µM in the assay with MT4 [4].
